This note sets out measurements from BindingDB's records for patent US12552799 (Nxera Pharma, 2026).

The structures appear in SMILES notation.

As a reminder, the Ki is the dissociation constant of the complex between target and ligand, obtained from inhibition or displacement. Lower therefore signals tighter binding.

For one experiment, the target named is T1, Adenosine receptor A1 (Homo sapiens, UniProt P30542).
T1 sequence (P30542 whole entry): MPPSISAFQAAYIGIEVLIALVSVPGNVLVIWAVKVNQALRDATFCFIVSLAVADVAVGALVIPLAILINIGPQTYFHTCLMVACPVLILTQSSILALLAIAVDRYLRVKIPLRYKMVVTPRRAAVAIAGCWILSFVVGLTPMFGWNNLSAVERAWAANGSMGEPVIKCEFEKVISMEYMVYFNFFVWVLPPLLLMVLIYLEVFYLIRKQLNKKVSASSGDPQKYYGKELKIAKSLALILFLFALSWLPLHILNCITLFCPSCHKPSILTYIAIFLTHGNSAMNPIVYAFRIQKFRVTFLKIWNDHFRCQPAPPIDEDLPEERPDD
The experiment in a line: Adenosine Receptor Binding Assay. On the procedure:
(§1) Inhibition binding assays were performed using 0.2 μg of membranes prepared from […] cells infected with BacMam human adenosine A2A receptor or 1.4 μg of membranes […] receptor. Membranes were incubated in 50 mM Tris-HCl (HEK293-hA2A; pH 7.4) or 50 mM Tris-HCl, 100 mM NaCl, 10 mM MgCl2 (CHO-hA1; pH 7.4) in the presence of varying concentrations of test compound and 1 nM [3H]ZM241385 (HEK293-hA2A) or [3H]DPCPX (CHO-hA1) at 25° C. for 1 h. The assay was then terminated by rapid filtration onto GF/B grade Unifilter plates using a TomTec cell harvester, followed by 5×0.5 ml washes with ddH2O. Nonspecific binding was defined in the presence of 1 μM CGS15943 (HEK293-hA2A) or 1 μM DPCPX (CHO-hA1). Bound radioactivity was determined by liquid scintillation counting and inhibition curves were analysed using a four-parameter logistic equation.

A further experiment addresses Adenosine receptor A2a (Homo sapiens, UniProt P29274). The experiment in a line: Adenosine Receptor Binding Assay. On the procedure:
as §1

Chain of Adenosine receptor A2a (P29274 whole entry): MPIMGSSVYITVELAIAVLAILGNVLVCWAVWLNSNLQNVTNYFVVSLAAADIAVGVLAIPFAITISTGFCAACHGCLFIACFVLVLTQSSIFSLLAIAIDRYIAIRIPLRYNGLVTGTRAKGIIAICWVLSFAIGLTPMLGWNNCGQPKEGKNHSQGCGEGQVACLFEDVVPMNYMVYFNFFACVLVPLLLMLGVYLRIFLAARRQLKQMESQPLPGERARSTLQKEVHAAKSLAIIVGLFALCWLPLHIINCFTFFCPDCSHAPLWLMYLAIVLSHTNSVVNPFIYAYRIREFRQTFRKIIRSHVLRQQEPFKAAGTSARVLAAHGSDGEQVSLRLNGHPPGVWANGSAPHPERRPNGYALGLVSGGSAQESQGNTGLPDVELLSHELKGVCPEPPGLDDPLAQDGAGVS

Turning to `Cc1ocnc1Cn1nc2c(-c3cc(C)c4ncoc4c3)c(-c3ccccc3)nc(N)n2c1=O` [US12552799, Example 4-6], the values for the Ki at Adenosine receptor A1 and at Adenosine receptor A2a were 7.94 nM and 0.079 nM, respectively.
Turning to `CCCn1nc2c(N3C[C@@H](C)O[C@@H](C)C3)c(-c3ccccc3)nc(N)n2c1=O` [US12552799, Example 1-4], the inhibitory constant (Ki) is over 3160 nM at Adenosine receptor A1 and 63.1 nM at Adenosine receptor A2a.
As to `C[C@@H]1CN(c2c(-c3ccccc3)nc(N)n3c(=O)n(CCCF)nc23)C[C@H](C)O1` [US12552799, Example 1-2], the Ki on Adenosine receptor A1 is over 3160 nM; at Adenosine receptor A2a, 158 nM.
`C[C@@H]1CN(c2c(-c3ccccc3)nc(N)n3c(=O)n(C[C@H]4CCCO4)nc23)C[C@H](C)O1` [US12552799, Example 1-8]: the figures for the Ki at Adenosine receptor A1 and at Adenosine receptor A2a were over 2000 nM and 10 nM, respectively.
For `C[C@@H]1CN(c2c(-c3ccccc3)nc(N)n3c(=O)n(C[C@@H]4CCCN4C)nc23)C[C@H](C)O1` [US12552799, Example 1-7] the same measures were 2000 nM and 158 nM.
With `Cc1cc(-c2c(-c3ccc(F)cc3)nc(N)n3c(=O)n(Cc4ccc(Cl)cn4)nc23)cc2ocnc12` [US12552799, Example 4-2], the Ki was 63.1 nM at Adenosine receptor A1 and 0.158 nM on Adenosine receptor A2a.
Take `Cc1cc(-c2c(-c3ccccc3)nc(N)n3c(=O)n(Cc4ccc(F)cn4)nc23)cc(C)c1O` [US12552799, Example 3-1]: the inhibition constant (Ki) on Adenosine receptor A1 was found to be 100 nM; at Adenosine receptor A2a it was 0.631 nM.
Take `Cc1cc(-c2c(-c3ccccc3)nc(N)n3c(=O)n(Cc4ccc(F)cn4)nc23)cc2c1N=NC2` [US12552799, Example 4-4]: the Ki at Adenosine receptor A1 came to 25.1 nM; on Adenosine receptor A2a it was 0.251 nM.
